Assay results taken from US11739122B2, “Glycopeptide antibiotic compounds, methods for producing the same, and uses thereof” (Academia Sinica, priority 2019, dated 2023).
Converted amounts (≈) assume the structure as drawn.

Tests used:
Assay in all cases: MIC, broth microdilution
[1] = system: MRSA ATCC 43300; type: cell-based, Staphylococcus aureus; conditions: MRSA ATCC 43300
Procedure: (§1) Determination of Minimal Inhibitory Concentration (MIC) for Vancomycin, Teicoplanin and Tei-Analogs Versus Selected Strains
(§2) MICs were determined by the broth microdilution method. Specifically, 12 Colonies of the test strain were picked up from 18-24 hour agar cultures and freshly inoculated into broth mediums until reaching the turbidity of a 0.5 McFarland standard. The broth culture was adjusted with broth medium to approximately 1×10^8 CFUmL^−1. […] The plates were incubated in 37° C. for 18-24 hours and monitored for the wells of the positive control, where cells grew, and the wells of the negative control, where wells should not grow. The MIC value was determined for the concentration of a test compound, at which there was no visible growth in the well.

[2] = system: MRSA ATCC 700698 hVISA; type: cell-based, Staphylococcus aureus; conditions: MRSA ATCC 700698 hVISA
Procedure: as §1, §2

[3] = system: MRSA ATCC 700787 VRSA; type: cell-based, Staphylococcus aureus; conditions: MRSA ATCC 700787 VRSA
Procedure: as §1, §2

[4] = system: MRSA ATCC 700789 VRSA; type: cell-based, Staphylococcus aureus; conditions: MRSA ATCC 700789 VRSA
Procedure: as §1, §2

[5] = system: MRSA ATCC BAA-38; type: cell-based, Staphylococcus aureus; conditions: MRSA ATCC BAA-38
Procedure: as §1, §2

[6] = system: MRSA ATCC BAA-39; type: cell-based, Staphylococcus aureus; conditions: MRSA ATCC BAA-39
Procedure: as §1, §2

[7] = system: MRSA ATCC BAA-44; type: cell-based, Staphylococcus aureus; conditions: MRSA ATCC BAA-44
Procedure: as §1, §2

[8] = system: S. aureus ATCC 29213; type: cell-based, Staphylococcus aureus; conditions: SA ATCC 29213
Procedure: as §1, §2

[9] = system: E. faecalis ATCC 29302; type: cell-based; conditions: EF ATCC 29302
Procedure: as §1, §2

[10] = system: VRE ATCC 700221 (vanA); type: cell-based, enterococci; conditions: VRE ATCC 700221 (vanA)
Procedure: as §1, §2

[11] = system: VRE ATCC 700425 (vanC); type: cell-based, enterococci; conditions: VRE ATCC 700425 (vanC)
Procedure: as §1, §2

[12] = system: VRE ATCC 700802 (vanB); type: cell-based, enterococci; conditions: VRE ATCC 700802 (vanB)
Procedure: as §1, §2

[13] = system: A. baumannii ATCC 19606; type: cell-based, Acinetobacter baumannii; conditions: for MIC on AB: A. baumannii ATCC 19606
Procedure: as §1, §2

[14] = A. baumannii ATCC 19606, Table 3, first figure of cell
[15] = A. baumannii ATCC 19606, Table 3, second figure of cell

Compound	MIC [1] [µg/mL]	MIC [2] [µg/mL]	MIC [3] [µg/mL]	MIC [4] [µg/mL]	MIC [5] [µg/mL]	MIC [6] [µg/mL]	MIC [7] [µg/mL]	MIC [8] [µg/mL]	MIC [9] [µg/mL]	MIC [10] [µg/mL]	MIC [11] [µg/mL]	MIC [12] [µg/mL]	MIC [13, 14] [µM]	MIC [13, 15] [µg/mL]	MIC on AB [13] [µg/mL]
CCCCCCCC(=O)N[C@H]1[C@H](O[C@@H]2c3ccc(c(Cl)c3)Oc3cc4cc(c3O)Oc3ccc(cc3Cl)C[C@H]3NC(=O)[C@H](N(C)C)c5ccc(O)c(c5)Oc5cc(O)cc(c5)[C@H](NC3=O)C(=O)N[C@H]4C(=O)N[C@H]3C(=O)N[C@@H]2C(=O)N[C@H](C(=O)O)c2cc(O)cc(O)c2-c2cc3ccc2O)O[C@H](CO)[C@@H](O)[C@@H]1O [Compound 20]	0.063 (≈ 0.0416 µM)	0.016 (≈ 0.0106 µM)	0.016 (≈ 0.0106 µM)	0.5 (≈ 0.33 µM)	0.016 (≈ 0.0106 µM)	0.016 (≈ 0.0106 µM)	0.016 (≈ 0.0106 µM)	0.016 (≈ 0.0106 µM)	0.25 (≈ 0.165 µM)	>16	1 (≈ 0.66 µM)	0.5 (≈ 0.33 µM)	–	–	–
CC(=O)NC1C(OC2c3ccc(c(Cl)c3)Oc3cc4cc(c3OC3OC(CO)C(O)C(O)C3NC(=O)CCCCCCCNC(=N)N)Oc3ccc(cc3Cl)CC3NC(=O)C(N(C)C)c5ccc(O)c(c5)Oc5cc(O)cc(c5)C(NC3=O)C(=O)NC4C(=O)NC3C(=O)NC2C(=O)NC(C(=O)O)c2cc(O)cc(OC4OC(CO)C(O)C(O)C4O)c2-c2cc3ccc2O)OC(CO)C(O)C1O (stereo not drawn) [Compound 27]	–	–	–	–	–	–	–	–	–	–	–	–	50	96.73	–
C#CCCC(=O)N[C@H]1[C@H](O[C@@H]2c3ccc(c(Cl)c3)Oc3cc4cc(c3O)Oc3ccc(cc3Cl)C[C@H]3NC(=O)[C@H](N)c5ccc(O)c(c5)Oc5cc(O)cc(c5)[C@H](NC3=O)C(=O)N[C@H]4C(=O)N[C@H]3C(=O)N[C@@H]2C(=O)N[C@H](C(=O)O)c2cc(O)cc(O)c2-c2cc3ccc2O)O[C@H](CO)[C@@H](O)[C@@H]1O [Compound 13]	0.125 (≈ 0.0868 µM)	0.063 (≈ 0.0437 µM)	0.063 (≈ 0.0437 µM)	1 (≈ 0.694 µM)	0.063 (≈ 0.0437 µM)	0.063 (≈ 0.0437 µM)	0.031 (≈ 0.0215 µM)	0.063 (≈ 0.0437 µM)	0.5 (≈ 0.347 µM)	>16	4 (≈ 2.78 µM)	4 (≈ 2.78 µM)	–	–	–
NCCC[C@H](N)CC(=O)N[C@@H]1[C@H](O)[C@@H](OC(N)=O)[C@@H](CO)O[C@H]1NC1=N[C@@H]2C(=O)NC[C@@H](O)[C@H]2N1 [streptothricin F, reference compound]	–	–	–	–	–	–	–	–	–	–	–	–	12.5	6.28	–
CCCCCCCC(=O)NC1C(OC2c3ccc(c(Cl)c3)Oc3cc4cc(c3O)Oc3ccc(cc3Cl)CC3NC(=O)C(N)c5ccc(O)c(c5)Oc5cc(O)cc(c5)C(NC3=O)C(=O)NC4C(=O)NC3C(=O)NC2C(=O)NC(C(=O)O)c2cc(O)cc(OC4OC(CO)C(O)C(O)C4O)c2-c2cc3ccc2O)OC(CO)C(O)C1O (stereo not drawn) [Compound 26]	0.125 (≈ 0.0758 µM)	0.031 (≈ 0.0188 µM)	0.5 (≈ 0.303 µM)	0.5 (≈ 0.303 µM)	0.125 (≈ 0.0758 µM)	0.016 (≈ 0.00971 µM)	0.016 (≈ 0.00971 µM)	0.016 (≈ 0.00971 µM)	0.5 (≈ 0.303 µM)	>16	1 (≈ 0.607 µM)	1 (≈ 0.607 µM)	–	–	–
CN(C)[C@H]1C(=O)N[C@@H]2Cc3ccc(c(Cl)c3)Oc3cc4cc(c3O)Oc3ccc(cc3Cl)[C@@H](O[C@@H]3O[C@H](CO)[C@@H](O)[C@H](O)[C@H]3NC(=O)CCCCCCC[N+](C)(C)C)[C@@H]3NC(=O)[C@H](NC(=O)[C@@H]4NC(=O)[C@@H](NC2=O)c2cc(O)cc(c2)Oc2cc1ccc2O)c1ccc(O)c(c1)-c1c(O)cc(O)cc1[C@@H](C(=O)O)NC3=O [Compound 23]	–	0.031	0.031	–	–	–	–	0.031	0.25	>16	2	1	50	78.52	78.52
N[C@H]1C(=O)N[C@@H]2Cc3ccc(c(Cl)c3)Oc3cc4cc(c3O)Oc3ccc(cc3Cl)[C@@H](O[C@@H]3O[C@H](CO)[C@@H](O)[C@H](O)[C@H]3NC(=O)CCCCCCCCCCCO)[C@@H]3NC(=O)[C@H](NC(=O)[C@@H]4NC(=O)[C@@H](NC2=O)c2cc(O)cc(c2)Oc2cc1ccc2O)c1ccc(O)c(c1)-c1c(O)cc(O)cc1[C@@H](C(=O)O)NC3=O [Compound 19]	0.063 (≈ 0.0404 µM)	0.016 (≈ 0.0103 µM)	0.016 (≈ 0.0103 µM)	0.25 (≈ 0.16 µM)	0.031 (≈ 0.0199 µM)	0.016 (≈ 0.0103 µM)	0.016 (≈ 0.0103 µM)	0.016 (≈ 0.0103 µM)	0.25 (≈ 0.16 µM)	>16	1 (≈ 0.642 µM)	0.5 (≈ 0.321 µM)	–	–	–
CN(C)[C@H]1C(=O)N[C@@H]2Cc3ccc(c(Cl)c3)Oc3cc4cc(c3O)Oc3ccc(cc3Cl)[C@@H](O[C@@H]3O[C@H](CO)[C@@H](O)[C@H](O)[C@H]3NC(=O)CCCCCCCN)[C@@H]3NC(=O)[C@H](NC(=O)[C@@H]4NC(=O)[C@@H](NC2=O)c2cc(O)cc(c2)Oc2cc1ccc2O)c1ccc(O)c(c1)-c1c(O)cc(O)cc1[C@@H](C(=O)O)NC3=O [Compound 22]	–	0.125 (≈ 0.0817 µM)	0.063 (≈ 0.0412 µM)	–	–	–	–	0.031 (≈ 0.0203 µM)	1 (≈ 0.654 µM)	>16	2 (≈ 1.31 µM)	1 (≈ 0.654 µM)	25	38.19	–
CN(C)[C@H]1C(=O)N[C@@H]2Cc3ccc(c(Cl)c3)Oc3cc4cc(c3O)Oc3ccc(cc3Cl)[C@@H](O[C@@H]3O[C@H](CO)[C@@H](O)[C@H](O)[C@H]3NC(=O)CCCCCCCO)[C@@H]3NC(=O)[C@H](NC(=O)[C@@H]4NC(=O)[C@@H](NC2=O)c2cc(O)cc(c2)Oc2cc1ccc2O)c1ccc(O)c(c1)-c1c(O)cc(O)cc1[C@@H](C(=O)O)NC3=O [Compound 21]	–	0.063 (≈ 0.0412 µM)	0.125 (≈ 0.0817 µM)	–	–	–	–	0.125 (≈ 0.0817 µM)	1 (≈ 0.653 µM)	>16	8 (≈ 5.23 µM)	8 (≈ 5.23 µM)	100	152.84	152.84 (≈ 99.9 µM)
N[C@H]1C(=O)N[C@@H]2Cc3ccc(c(Cl)c3)Oc3cc4cc(c3O)Oc3ccc(cc3Cl)[C@@H](O[C@@H]3O[C@H](CO)[C@@H](O)[C@H](O)[C@H]3NC(=O)CCCCCc3ccccc3)[C@@H]3NC(=O)[C@H](NC(=O)[C@@H]4NC(=O)[C@@H](NC2=O)c2cc(O)cc(c2)Oc2cc1ccc2O)c1ccc(O)c(c1)-c1c(O)cc(O)cc1[C@@H](C(=O)O)NC3=O [Compound 16]	0.063 (≈ 0.0411 µM)	0.016 (≈ 0.0104 µM)	0.125 (≈ 0.0815 µM)	0.5 (≈ 0.326 µM)	0.031 (≈ 0.0202 µM)	0.063 (≈ 0.0411 µM)	0.016 (≈ 0.0104 µM)	0.125 (≈ 0.0815 µM)	0.25 (≈ 0.163 µM)	>16	1 (≈ 0.652 µM)	0.25 (≈ 0.163 µM)	–	–	–
CN(C)[C@H]1C(=O)N[C@@H]2Cc3ccc(c(Cl)c3)Oc3cc4cc(c3O)Oc3ccc(cc3Cl)[C@@H](O[C@@H]3O[C@H](CO)[C@@H](O)[C@H](O)[C@H]3NC(=O)CCCCCCCNC(=N)NC(=N)N)[C@@H]3NC(=O)[C@H](NC(=O)[C@@H]4NC(=O)[C@@H](NC2=O)c2cc(O)cc(c2)Oc2cc1ccc2O)c1ccc(O)c(c1)-c1c(O)cc(O)cc1[C@@H](C(=O)O)NC3=O [Compound 25, r1,Me2-r6,C8-diguanidino-Tei]	–	–	–	–	–	–	–	–	–	–	–	–	25	40.29	39.24 (≈ 24.3 µM)
N[C@H]1C(=O)N[C@@H]2Cc3ccc(c(Cl)c3)Oc3cc4cc(c3O)Oc3ccc(cc3Cl)[C@@H](O[C@@H]3O[C@H](CO)[C@@H](O)[C@H](O)[C@H]3NC(=O)CCc3ccccc3)[C@@H]3NC(=O)[C@H](NC(=O)[C@@H]4NC(=O)[C@@H](NC2=O)c2cc(O)cc(c2)Oc2cc1ccc2O)c1ccc(O)c(c1)-c1c(O)cc(O)cc1[C@@H](C(=O)O)NC3=O [Compound 15]	0.031 (≈ 0.0208 µM)	0.016 (≈ 0.0107 µM)	0.031 (≈ 0.0208 µM)	0.5 (≈ 0.335 µM)	0.016 (≈ 0.0107 µM)	0.016 (≈ 0.0107 µM)	0.016 (≈ 0.0107 µM)	0.031 (≈ 0.0208 µM)	0.25 (≈ 0.168 µM)	>16	1 (≈ 0.67 µM)	0.5 (≈ 0.335 µM)	–	–	–
